Data set [1] has as its system human BKα channel ZERO isoform expressed in HEK293 cells. In words: Phagemid display selection (panning). Type of data set: binding. An excerpt: A monovalent phagemid display library (library C, Mobitec) was sequentially panned against three sets of HEK293 cells (see below). For negative selection, cells expressed the human glycine receptor α1 (hGlyRα1, X52009) and the rat small conductance calcium-activated channel 2 (rSK2, U69882.1). For positive selection, cells expressed the human BKα channel ZERO isoform (NM_002238). The progress of the selection process was monitored after each panning round by titering and sequencing the phagemid DNA. With 6 randomized and 3 fixed amino acids, this library started with 3 × 10^7 unique sequences. LS3 was selected as one of the sequences expressing motifs that were enriched more than 1000 -fold. LS3 was synthesized as a TFA salt at 98–99% purity verified by HPLC and MS analysis (Genscript, Piscataway, NJ). Stocks were dissolved in water at 10 mM and aliquots were lyophilized and stored at −80 °C. As a secondary determination of identity and purity, in-house LC/MS was performed on a single quadrupole Mass Spectrophotometer (Agilent 6130) interfaced with a HPLC with a diode-array (UV-vis) detector (Agilent 1200).
HEK293 cells (ATCC, Manassas, VA) were grown according to standard procedures. Cells were cultured at 37 °C in a 5% CO2 atmosphere in Dulbecco’s modified Eagle’s medium with L-glutamine, sodium pyruvate and 10% fetal bovine serum (Invitrogen). Cell lines were split with trypsin/EDTA in Hanks’ balanced salt solution (Invitrogen) up to 25–30 cycles. For phage display, stable lines stably expressed rSK2 or hBKα ZERO isoform. Cells were transfected (Lipofectamine 2000, Invitrogen) with hGlyRα1 and used 48 hours later. For electrophysiological recordings, cells were transfected with hBKα ZERO isoform. Enhanced green fluorescent protein (EGFP) was cotransfected as a marker. Electrophysiological recordings were made 16–72 h after transfection. […]

In data set [2] the test system is mAcetylcholine M3. In words: Competition radioligand binding (NIMH PDSP). As to conditions: radioligand QNB, measured 4 times.
The nature of data set [3]: Blood-brain barrier crossing inferred from functional activity in the IC. As to conditions: inferred from suppression of sound evoked activity after topical (dura) or systemic (0.3 mg/kg I.P.) administration. Type of data set: in vivo, mouse. As for the experimental part: The temperature was maintained near 25 °C.
For data set [4], the system named is wild-type worms (N2 Bristol; BK channel ortholog SLO-1). Nature of the data set: C. elegans crawl speed, wild-type. Type of data set: in vivo, Caenorhabditis elegans. As to conditions: for crawl speed relative to controls: 30 min pre-incubation in puddle, age-matched day one adults, tracked 1 min, p < 0.001; for effect on crawl speed: wild type, 30 min, p<0.001, N=81-210, planned Student's t-tests. The procedure: (§1) Worms were cultivated at 20 °C as described with OP50 bacteria. Worms cultured on plates contaminated with fungi or other bacteria were excluded from this study. The reference wild-type strain was N2 Bristol. The reference slo-1(null) strain and background for transgenic strains was NM1968, harboring the previously characterized null allele, js379[29]. Multi-site gateway technology (Invitrogen) was used to construct plasmids. […] of the native slo-1 promoter (Pslo-1) and the traditional unc-54 UTR were used in combination with slo-1a(cDNA)::mCherry for a rescue construct. To test rescue with the human BK channel, an hslo(ZERO isoform, cDNA)::mCherry version was constructed. The slo-1(+) and hslo(+) plasmids were injected at a concentration of 20 and 10 ng/μl, respectively. The co-injection reporter PCFJ90 (1.25 ng/μl) was used to ensure proper transformation of the arrays. As such, JPS345 carried vxEx345, an extrachromosomal array containing [Pslo-1::slo-1::mCherry::unc-54UTR,Pmyo-2::mCherry::unc-54UTR]. JPS340 carried […], an extrachromosomal array containing [Pslo-1::hslo::mCherry::unc-54UTR,Pmyo-2::mCherry::unc-54UTR].
Age-matched day one adults were cleaned of bacteria by letting them crawl around on an unseeded plate and then moved into a puddle of NGM or peptide dissolved in NGM on another unseeded plate. NGM and peptide treatment groups were always run in tandem to control for behavioral variance. While much shorter than typical drug applications in C. elegans, brief application in liquid was chosen to avoid potential catabolic by-products of incubation on metabolically active E. coli. Higher LS3 concentrations were used to compensate. The puddle was refreshed 1–2 times as needed, but let to fully absorb into the agar by 30 minutes. After 30 minutes, crawl behavior was videoed (Flea2 camera, Point Grey Research, Canada; StreamPix 3, NorPix, Canada). Copper rings restricted movement to a proscribed area. The worms were tracked offline using custom macros (Image-Pro, MediaCybernetics, Rockville, MD) for 1 minute to obtain crawl speed (cm/min). Group means ± SEM for peptide-treated vs. vehicle-treated controls were compared at each concentration with Student’s t-tests. Rescue analysis was completed with two-way ANOVA (SigmaPlot, San Jose, CA). Crawl speeds for the peptide treated groups were also normalized to the performance of yoked controls. Normalized group means±SEM were compared vs. slo-1 null performance by two-way ANOVA.

Data set [5] concerns hslo(+) human BK channel gene (ZERO isoform) expressed in slo-1(null) worms. In words: C. elegans crawl speed, hslo(+) rescue on slo-1 null background. Type of data set: in vivo, Caenorhabditis elegans. As to conditions: 750 μM LS3, 30 min; transgenic hslo(+) on slo-1(null) background; vs. slo-1(null): p < 0.001, N = 78–162. The procedure:
as §1
Age-matched day one adults were cleaned of bacteria by letting them crawl around on an unseeded plate and then moved into a puddle of NGM or peptide dissolved in NGM on another unseeded plate. […]

The test system of data set [6] is Histamine H3. In words: Competition radioligand binding (NIMH PDSP). As to conditions: radioligand α-methylhistamine, measured 4 times. As for the experimental part: (§2) LS3 was screened against a comprehensive panel of CNS-based proteins. Detailed protocols can be found within the US National Institute of Mental Health Psychoactive Drug Screening Program (NIMH PDSP) Assay Protocol Book (version II), by B. L. Roth, March 2013 (available at: http://pdsp.med.unc.edu/PDSP%20Protocols%20II%202013-03-28.pdf). […] Radioactivity in the presence of the LS3 (sample) was calculated with the following equation and expressed as a percent inhibition: % inhibition = (sample CPM – non-specific CPM)/Total CPM – non-specific CPM) × 100. Total binding was measured with no competing ligand. Non-specific binding was measured in the presence of reference compound. The % inhibition by LS3 was measured 4 times for each receptor.

The subject of data set [7] is Dopamine D1. In words: Competition radioligand binding (NIMH PDSP). As to conditions: radioligand SCH233930, measured 4 times. As for the experimental part: as §2
For data set [8], the system named is SERT. Nature of the data set: Competition radioligand binding (NIMH PDSP). As to conditions: radioligand Citalopram, measured 4 times. As for the experimental part: as §2
Data set [9] relates to Histamine H1. In words: Competition radioligand binding (NIMH PDSP). As to conditions: radioligand Pyrilamine, measured 4 times. As for the experimental part: as §2
Data set [10] relates to 5HT 2A. In words: Competition radioligand binding (NIMH PDSP). As to conditions: radioligand Ketanserin, measured 4 times. As for the experimental part:
as §2

Setting [11] is: phage-displayed sequence CRRGLVQVC

“Also recorded” adds a separate entry of the source. Where a SMILES comes first, the peptide text is derived from it. Bridges are numbered along the chain shown (N, C = ends).

Take `CC(C)C[C@@H]1NC(=O)CNC(=O)[C@H](CCCNC(=N)N)NC(=O)[C@H](CCCNC(=N)N)NC(=O)[C@@H](N)CSSC[C@@H](C(=O)O)NC(=O)[C@H](C(C)C)NC(=O)[C@H](CCC(N)=O)NC(=O)[C@H](C(C)C)NC1=O` [LS3] (H-CRRGLVQVC-OH; disulfide 1-9; N-terminus and C-terminus assumed): the “enrichment of motifs expressed by the sequence” value in [1] (criterion for selection of LS3) is listed as “more than 1000 fold”. In addition, the “enrichment of motif RRXXXXV during selection” value in data set [1] (setting [11]) is ~ 4000 fold. Moreover, the “enrichment of motif XRGXXXV during selection” value in [1] (setting [11]) was ~ 3000 fold. The “% inhibition by 10 µM LS3” value is on record as 11.5% in [2]; 5.1% in [6]; 15.7% in data set [7]; 0.1% in data set [8]; 14.8% in data set [9]; 16.2% in data set [10]. In data set [3], the “ability to cross the BBB” value was “can cross the BBB; also recorded: rapidly crosses the BBB after systemic delivery; also recorded: crosses the blood-brain barrier (BBB)”. In addition, the figures for the “crawl speed relative to controls” value in [4] (250 μM LS3 in NGM) and in [4] (750 μM LS3 in NGM) were ~ 85% and ~ 70%, respectively. Moreover, the “effect on crawl speed” value in data set [4] (75 µM LS3 vs. vehicle), in [4] (250 µM LS3 vs. vehicle) and in [4] (750 µM LS3 vs. vehicle) was “reduced” in each case. In data set [4] (wild-type, LS3 in NGM, 30 min bath, WT vs. slo-1(null) at 250 and 750 μM: p < 0.05 and p < 0.001, N = 139–372), the “effect on crawl speed / locomotion” value was “reduced crawl speed; also recorded: slowed locomotion in a concentration-dependent manner”. Besides, the “LS3-induced slowing response (reduction in crawl speed)” value in [5] is “rescued the LS3-induced slowing response”.

The record behind these values is paper PMC5307958 (Scientific Reports, 2017).
